Test results taken from ChEMBL document CHEMBL1125556, “Fluoroquinolones: relationships between structural variations, mammalian cell cytotoxicity, and antimicrobial activity” (J Med Chem, 1992).
Values after ≈ are worked out from the molar mass of the structure shown.

Tests used:
[1] = Antibacterial activity against five Gram-negative bacteria; assay type: functional
V79 = assay: Mammalian cell cytotoxicity test in chinese hamster V79 cells (clonogenic cytotoxicity); assay type: functional, cell-based
[2] = Cricetulus griseus, V79, read-out: IC50

MIC ([1]; read-out: MIC) | MIC [1] | Compound | IC50 (V79; [2]) | IC50 (V79; v79)
0.34 µg/mL (≈ 0.873 µM) | – | COc1c(N2CC(C)NC(C)C2)c(F)cc2c(=O)c(C(=O)O)cn(C3CC3)c12 (stereo not drawn) | > 500 µg/mL | –
0.2 µg/mL (≈ 0.55 µM) | – | NC1CCN(c2c(F)cc3c(=O)c(C(=O)O)cn(C4CC4)c3c2F)CC1 | 23 µg/mL (≈ 63.3 µM) | –
0.4 µg/mL (≈ 1.07 µM) | – | CNCC1(C)CCN(c2cc3c(cc2F)c(=O)c(C(=O)O)cn3C2CC2)C1 (stereo not drawn) | 205 µg/mL (≈ 549 µM) | –
0.2 µg/mL (≈ 0.501 µM) | – | NC1CCN(c2c(F)cc3c(=O)c(C(=O)O)cn(C4CC4)c3c2C(F)(F)F)C1 (stereo in doubt; 45) | 300 µg/mL (≈ 751 µM) | –
0.4 µg/mL (≈ 1.01 µM) | – | CCNCC1CCN(c2c(F)cc3c(=O)c(C(=O)O)cn(CCF)c3c2F)C1 (stereo not drawn) | > 500 µg/mL | –
1 µg/mL (≈ 2.34 µM) | – | CC1(CN)CCN(c2c(F)cc3c(=O)c(C(=O)O)cn(C4CC4)c3c2C(F)(F)F)C1 (stereo not drawn) | 110 µg/mL (≈ 257 µM) | –
0.46 µg/mL (≈ 1.03 µM) | – | COc1c(N2CCC(C)(N)C2)c(F)cc2c(=O)c(C(=O)O)cn(-c3ccc(F)cc3F)c12 (stereo not drawn) | 250 µg/mL (≈ 559 µM) | –
0.12 µg/mL (≈ 0.356 µM) | – | CCn1cc(C(=O)O)c(=O)c2cc(F)c(N3CCC(N)C3)c(F)c21 (stereo not drawn) | 300 µg/mL (≈ 889 µM) | –
0.21 µg/mL (≈ 0.561 µM) | – | CCNCC1CCN(c2nc3c(cc2F)c(=O)c(C(=O)O)cn3C2CC2)C1 (stereo not drawn) | 160 µg/mL (≈ 427 µM) | –
0.56 µg/mL (≈ 1.55 µM) | – | CCNCC1CCN(c2cc3c(cc2F)c(=O)c(C(=O)O)cn3CC)C1 (stereo not drawn) | 310 µg/mL (≈ 858 µM) | –
2.08 µg/mL (≈ 5.25 µM) | – | COc1c(F)c(N2CCC(N)C2)c(Cl)c2c1c(=O)c(C(=O)O)cn2C1CC1 (stereo not drawn) | > 500 µg/mL | –
0.17 µg/mL (≈ 0.472 µM) | – | CC1CN(c2nc3c(cc2F)c(=O)c(C(=O)O)cn3C2CC2)CC(C)N1 (stereo not drawn) | 250 µg/mL (≈ 694 µM) | –
0.08 µg/mL (≈ 0.211 µM) | – | NC1CCN(c2c(F)cc3c(=O)c(C(=O)O)cn(C4CC4)c3c2Cl)CC1 | 18 µg/mL (≈ 47.4 µM) | –
0.09 µg/mL (≈ 0.261 µM) | – | Cc1c(F)c(N2CCC(N)C2)cc2c1c(=O)c(C(=O)O)cn2C1CC1 (stereo not drawn) | 14 µg/mL (≈ 40.5 µM) | –
0.08 µg/mL (≈ 0.223 µM) | – | CC1CN(c2cc3c(cc2F)c(=O)c(C(=O)O)cn3C2CC2)CC(C)N1 (stereo not drawn) | > 500 µg/mL | –
1.81 µg/mL (≈ 5.04 µM) | – | CCc1c(F)c(N2CCC(N)C2)cc2c1c(=O)c(C(=O)O)cn2C1CC1 (stereo not drawn) | 46 µg/mL (≈ 128 µM) | –
0.6 µg/mL (≈ 1.6 µM) | – | CNCC1(C)CCN(c2nc3c(cc2F)c(=O)c(C(=O)O)cn3C2CC2)C1 (stereo not drawn) | 58 µg/mL (≈ 155 µM) | –
0.2 µg/mL (≈ 0.53 µM) | – | CSc1c(N2CCC(N)C2)c(F)cc2c(=O)c(C(=O)O)cn(C3CC3)c12 (stereo not drawn) | 31 µg/mL (≈ 82.1 µM) | –
0.23 µg/mL (≈ 0.525 µM) | – | NC1CCN(c2c(F)cc3c(=O)c(C(=O)O)cn(-c4ccc(F)cc4F)c3c2Cl)C1 (stereo not drawn) | 89 µg/mL (≈ 203 µM) | –

MIC ([1]; read-out: MIC) | MIC [1] | Compound | IC50 (V79; [2]) | IC50 (V79; v79)
0.04 µg/mL (≈ 0.115 µM) | – | Nc1c(F)c(N2CCC(N)C2)cc2c1c(=O)c(C(=O)O)cn2C1CC1 (stereo not drawn) | 54 µg/mL (≈ 156 µM) | –
0.6 µg/mL (≈ 1.55 µM) | – | CCNCC1CCN(c2cc3c(c(C)c2F)c(=O)c(C(=O)O)cn3C2CC2)C1 (stereo not drawn) | 42 µg/mL (≈ 108 µM) | –
0.2 µg/mL (≈ 0.632 µM) | – | O=C(O)c1cn(C2CC2)c2cc(N3CCCC3)c(F)cc2c1=O | 38 µg/mL (≈ 120 µM) | –
0.56 µg/mL (≈ 1.37 µM) | – | CCNCC1CCN(c2c(F)c(F)c3c(=O)c(C(=O)O)cn(C4CC4)c3c2F)C1 (stereo not drawn) | 46 µg/mL (≈ 112 µM) | –
0.07 µg/mL (≈ 0.184 µM) | – | NC1CCCN(c2c(F)cc3c(=O)c(C(=O)O)cn(C4CC4)c3c2Cl)C1 (stereo not drawn) | 24 µg/mL (≈ 63.2 µM) | –
50 µg/mL (≈ 126 µM) | – | CCNCC1CCN(c2c(F)cc3c(=O)c(C(=O)O)cn(CCO)c3c2F)C1 (stereo not drawn) | > 500 µg/mL | –
– | 0.26 µg/mL (≈ 0.644 µM) | CCNCC1CCN(c2c(F)cc3c(=O)c(C(=O)O)cn(C4CC4)c3c2OC)C1 (stereo in doubt; 68) | – | 22 µg/mL (≈ 54.5 µM)
0.11 µg/mL (≈ 0.292 µM) | – | COc1c(N2CCC(N)C2)c(F)c(N)c2c(=O)c(C(=O)O)cn(C3CC3)c12 (stereo not drawn) | 100 µg/mL (≈ 266 µM) | –
0.91 µg/mL (≈ 2.2 µM) | – | Cc1c(F)c(N2CCC(N)C2)c(C(F)(F)F)c2c1c(=O)c(C(=O)O)cn2C1CC1 (stereo not drawn) | 290 µg/mL (≈ 702 µM) | –
4.17 µg/mL (≈ 10.3 µM) | – | CCNCC1CCN(c2c(F)cc3c(=O)c(C(=O)O)cn(CC4CC4)c3c2F)C1 (stereo not drawn) | 240 µg/mL (≈ 592 µM) | –
0.35 µg/mL (≈ 0.971 µM) | – | CC1(CN)CCN(c2nc3c(cc2F)c(=O)c(C(=O)O)cn3C2CC2)C1 (stereo not drawn) | 25 µg/mL (≈ 69.4 µM) | –
0.07 µg/mL (≈ 0.194 µM) | – | COc1c(N2CCC(N)C2)c(F)cc2c(=O)c(C(=O)O)cn(C3CC3)c12 (stereo in doubt; 24d) | – | 45 µg/mL (≈ 125 µM)
0.15 µg/mL (≈ 0.376 µM) | – | O=C(O)c1cn(C2CC2)c2c(C(F)(F)F)c(N3CCNCC3)c(F)cc2c1=O | 1650 µg/mL (≈ 4130 µM) | –
0.03 µg/mL (≈ 0.0821 µM) | – | NC1CCN(c2c(F)c(O)c3c(=O)c(C(=O)O)cn(C4CC4)c3c2F)C1 (stereo not drawn) | 43 µg/mL (≈ 118 µM) | –
0.07 µg/mL (≈ 0.178 µM) | – | CC1(CN)CCN(c2c(F)cc3c(=O)c(C(=O)O)cn(C4CC4)c3c2Cl)C1 (stereo not drawn) | 8 µg/mL (≈ 20.3 µM) | –
0.26 µg/mL (≈ 0.668 µM) | – | COc1c(N2CCC(C)(CN)C2)c(F)cc2c(=O)c(C(=O)O)cn(C3CC3)c12 (stereo not drawn) | 38 µg/mL (≈ 97.6 µM) | –
0.03 µg/mL (≈ 0.082 µM) | – | NC1CCN(c2c(F)cc3c(=O)c(C(=O)O)cn(C4CC4)c3c2Cl)C1 (stereo in doubt; 24c) [CLINAFLOXACIN] | 26 µg/mL (≈ 71.1 µM) | –
– | 0.09 µg/mL (≈ 0.272 µM) | NC1CCN(c2cc3c(cc2F)c(=O)c(C(=O)O)cn3C2CC2)C1 (stereo in doubt; 44) | – | 72 µg/mL (≈ 217 µM)

Compound | MIC ([1]; read-out: MIC) | MIC [1] | IC50 (V79; [2]) | IC50 (V79; v79)
O=C(O)c1cn(C2CC2)c2c(Cl)c(N3CCNCC3)c(F)cc2c1=O | 0.07 µg/mL (≈ 0.191 µM) | – | 43 µg/mL (≈ 118 µM) | –
COc1c(N2CCNCC2)c(F)cc2c(=O)c(C(=O)O)cn(C3CC3)c12 | 0.07 µg/mL (≈ 0.194 µM) | – | 82 µg/mL (≈ 227 µM) | –
